Test results reported in ChEMBL document CHEMBL1201862, “PubChem BioAssay data set” (2004).
The source made the active and inactive calls.

Tests used:
Format in all cases: functional
Caspase-3 = biological target: T1, Caspase-3 (Homo sapiens, UniProt P42574);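 further: Dose-response selectivity test against caspase-3 for candidate inhibitors of sentrin-specific proteases (SENPs)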
T1 sequence (P42574 whole entry): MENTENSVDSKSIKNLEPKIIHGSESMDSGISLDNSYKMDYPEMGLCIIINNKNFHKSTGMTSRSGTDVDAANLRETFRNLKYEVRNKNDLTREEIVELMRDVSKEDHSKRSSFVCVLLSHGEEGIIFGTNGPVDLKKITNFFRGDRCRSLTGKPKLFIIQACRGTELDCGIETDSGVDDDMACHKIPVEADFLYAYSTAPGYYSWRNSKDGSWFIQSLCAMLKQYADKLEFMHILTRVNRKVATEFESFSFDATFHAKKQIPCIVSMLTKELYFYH

[1] = biological target: T2, Sentrin-specific protease 7 (Homo sapiens, UniProt Q9BQF6);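 further: Luminescence-based dose-response confirmation of ultra-high-throughput screening hits, measuring inhibition of SENP7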
T2 sequence (Q9BQF6 whole entry): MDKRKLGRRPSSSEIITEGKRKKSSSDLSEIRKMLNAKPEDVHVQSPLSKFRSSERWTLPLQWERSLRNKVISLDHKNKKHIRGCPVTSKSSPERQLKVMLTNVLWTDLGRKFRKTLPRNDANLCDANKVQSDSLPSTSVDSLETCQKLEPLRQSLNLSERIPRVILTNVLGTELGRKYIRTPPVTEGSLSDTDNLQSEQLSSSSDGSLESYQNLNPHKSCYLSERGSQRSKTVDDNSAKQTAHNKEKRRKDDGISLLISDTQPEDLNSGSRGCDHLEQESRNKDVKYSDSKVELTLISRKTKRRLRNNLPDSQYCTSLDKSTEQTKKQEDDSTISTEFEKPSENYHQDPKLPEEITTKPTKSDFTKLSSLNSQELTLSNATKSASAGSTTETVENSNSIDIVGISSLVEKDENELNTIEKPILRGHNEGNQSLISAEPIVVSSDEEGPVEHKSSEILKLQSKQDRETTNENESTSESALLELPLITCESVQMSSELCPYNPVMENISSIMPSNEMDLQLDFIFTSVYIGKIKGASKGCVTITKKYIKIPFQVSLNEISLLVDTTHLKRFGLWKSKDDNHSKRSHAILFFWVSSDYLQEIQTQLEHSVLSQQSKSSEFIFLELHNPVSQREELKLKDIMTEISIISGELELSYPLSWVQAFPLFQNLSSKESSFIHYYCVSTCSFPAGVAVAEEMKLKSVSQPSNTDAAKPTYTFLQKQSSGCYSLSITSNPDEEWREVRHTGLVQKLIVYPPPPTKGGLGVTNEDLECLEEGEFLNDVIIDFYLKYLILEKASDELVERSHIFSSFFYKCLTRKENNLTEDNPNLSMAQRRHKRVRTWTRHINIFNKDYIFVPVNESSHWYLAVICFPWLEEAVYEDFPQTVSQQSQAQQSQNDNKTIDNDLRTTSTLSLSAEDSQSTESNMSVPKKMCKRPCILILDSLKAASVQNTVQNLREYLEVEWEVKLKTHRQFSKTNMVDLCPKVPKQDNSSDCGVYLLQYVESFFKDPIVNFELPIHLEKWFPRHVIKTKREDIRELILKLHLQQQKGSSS

[2] = biological target: Tyrosine-protein kinase JAK2 (Homo sapiens, UniProt O60674);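 further: JAK2 tested as one member of a kinase panel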
[3] = biological target: Serine/threonine-protein kinase TBK1 (Homo sapiens, UniProt Q9UHD2); test: Navigating the Kinome. Panel member name: TBK1
[4] = biological target: 5'-AMP-activated protein kinase catalytic subunit alpha-1 (Homo sapiens, UniProt Q13131)
[5] = biological target: Proto-oncogene tyrosine-protein kinase receptor Ret (Homo sapiens, UniProt P07949);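 further: measured within a kinome-wide profiling panel, RET as the panel member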
[6] = biological target: Serine/threonine-protein kinase D3 (Homo sapiens, UniProt O94806);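 further: determined within a kinase panel screen, with PRKCN as the panel member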
[7] = biological target: Death-associated protein kinase 3 (Homo sapiens, UniProt O43293);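 further: measured as one member of a kinome-wide profiling panel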
[8] = biological target: Fibroblast growth factor receptor 1 (Homo sapiens, UniProt P11362)
Fibroblast growth factor receptor 1, sequence (P11362 whole entry): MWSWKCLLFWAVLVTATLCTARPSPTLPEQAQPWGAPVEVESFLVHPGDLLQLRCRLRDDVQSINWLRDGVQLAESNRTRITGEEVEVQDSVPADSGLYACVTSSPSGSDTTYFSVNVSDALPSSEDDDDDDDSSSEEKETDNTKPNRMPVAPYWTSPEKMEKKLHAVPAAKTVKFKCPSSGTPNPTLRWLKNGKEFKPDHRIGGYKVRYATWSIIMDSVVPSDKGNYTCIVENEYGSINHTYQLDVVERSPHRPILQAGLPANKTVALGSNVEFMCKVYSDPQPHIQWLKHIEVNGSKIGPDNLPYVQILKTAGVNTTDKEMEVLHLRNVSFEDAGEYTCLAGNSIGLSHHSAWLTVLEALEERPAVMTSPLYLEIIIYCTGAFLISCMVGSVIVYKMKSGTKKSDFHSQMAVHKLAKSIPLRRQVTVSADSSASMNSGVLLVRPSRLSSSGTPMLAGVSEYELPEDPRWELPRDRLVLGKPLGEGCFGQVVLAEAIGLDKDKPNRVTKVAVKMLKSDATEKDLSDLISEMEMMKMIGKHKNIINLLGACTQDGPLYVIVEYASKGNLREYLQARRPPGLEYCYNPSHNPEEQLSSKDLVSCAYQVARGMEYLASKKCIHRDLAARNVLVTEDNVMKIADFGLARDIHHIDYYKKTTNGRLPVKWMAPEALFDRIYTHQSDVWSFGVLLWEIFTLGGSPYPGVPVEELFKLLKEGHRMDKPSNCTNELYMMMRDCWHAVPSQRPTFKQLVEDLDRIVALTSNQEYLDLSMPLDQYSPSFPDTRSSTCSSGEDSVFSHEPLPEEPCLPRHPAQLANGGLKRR

[9] = biological target: Mitogen-activated protein kinase 9 (Homo sapiens, UniProt P45984);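 further: value from a kinome panel profiling assay, MAPK9 panel entry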
[10] = biological target: High affinity nerve growth factor receptor (Homo sapiens, UniProt P04629);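 further: NTRK1 tested as one member of a kinome-wide profiling panel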
[11] = biological target: Glycogen synthase kinase-3 alpha (Homo sapiens, UniProt P49840);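 further: GSK3A result taken from a broad kinome-wide kinase panel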
Glycogen synthase kinase-3 alpha, sequence (P49840 whole entry): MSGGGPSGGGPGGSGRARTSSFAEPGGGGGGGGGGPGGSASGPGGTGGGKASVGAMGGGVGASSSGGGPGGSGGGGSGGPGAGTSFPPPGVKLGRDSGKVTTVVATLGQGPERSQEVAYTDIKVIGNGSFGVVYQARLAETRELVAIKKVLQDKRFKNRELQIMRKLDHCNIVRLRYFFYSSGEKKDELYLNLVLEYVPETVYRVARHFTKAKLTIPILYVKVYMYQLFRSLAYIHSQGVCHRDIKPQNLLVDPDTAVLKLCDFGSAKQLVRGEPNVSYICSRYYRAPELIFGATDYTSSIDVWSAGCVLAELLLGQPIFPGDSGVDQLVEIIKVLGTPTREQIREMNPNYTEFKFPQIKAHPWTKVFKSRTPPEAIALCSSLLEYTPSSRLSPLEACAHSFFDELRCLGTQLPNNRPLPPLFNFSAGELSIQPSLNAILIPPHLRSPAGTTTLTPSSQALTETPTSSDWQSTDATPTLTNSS

[12] = biological target: Mitogen-activated protein kinase kinase kinase kinase 2 (Homo sapiens, UniProt Q12851);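 further: measured as one member of a kinome-wide kinase panel, with MAP4K2 as the panel entry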
Mitogen-activated protein kinase kinase kinase kinase 2, sequence (Q12851 whole entry): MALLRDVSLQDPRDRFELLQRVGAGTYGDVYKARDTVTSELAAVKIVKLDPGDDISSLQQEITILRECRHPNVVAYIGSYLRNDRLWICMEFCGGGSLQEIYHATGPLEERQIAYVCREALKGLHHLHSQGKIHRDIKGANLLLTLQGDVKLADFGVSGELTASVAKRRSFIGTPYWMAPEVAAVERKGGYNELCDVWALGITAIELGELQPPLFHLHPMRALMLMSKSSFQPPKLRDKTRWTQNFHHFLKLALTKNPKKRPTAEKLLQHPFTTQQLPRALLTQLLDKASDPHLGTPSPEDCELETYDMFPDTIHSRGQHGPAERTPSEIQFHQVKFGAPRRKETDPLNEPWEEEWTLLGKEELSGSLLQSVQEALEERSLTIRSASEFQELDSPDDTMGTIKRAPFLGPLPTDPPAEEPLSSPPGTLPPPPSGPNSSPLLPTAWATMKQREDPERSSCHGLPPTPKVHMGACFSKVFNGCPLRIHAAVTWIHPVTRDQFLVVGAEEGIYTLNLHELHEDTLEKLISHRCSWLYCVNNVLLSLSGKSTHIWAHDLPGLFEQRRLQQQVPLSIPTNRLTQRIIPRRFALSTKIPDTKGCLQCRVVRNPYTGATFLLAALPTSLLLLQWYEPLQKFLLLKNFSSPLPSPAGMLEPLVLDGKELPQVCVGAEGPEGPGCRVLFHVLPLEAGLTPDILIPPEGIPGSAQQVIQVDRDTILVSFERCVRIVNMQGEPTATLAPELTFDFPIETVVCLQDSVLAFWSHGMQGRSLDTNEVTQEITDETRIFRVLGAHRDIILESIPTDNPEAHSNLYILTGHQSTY

[13] = biological target: Serine/threonine-protein kinase Chk1 (Homo sapiens, UniProt O14757);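 further: measured as one member of a kinome-wide kinase profiling panel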
[14] = biological target: Tyrosine-protein kinase ABL1 (Homo sapiens, UniProt P00519)
[15] = biological target: Vascular endothelial growth factor receptor 2 (Homo sapiens, UniProt P35968)
[16] = biological target: G protein-coupled receptor kinase 5 (Homo sapiens, UniProt P34947); test: Navigating the Kinome. Panel member name: GPRK5
G protein-coupled receptor kinase 5, sequence (P34947 whole entry): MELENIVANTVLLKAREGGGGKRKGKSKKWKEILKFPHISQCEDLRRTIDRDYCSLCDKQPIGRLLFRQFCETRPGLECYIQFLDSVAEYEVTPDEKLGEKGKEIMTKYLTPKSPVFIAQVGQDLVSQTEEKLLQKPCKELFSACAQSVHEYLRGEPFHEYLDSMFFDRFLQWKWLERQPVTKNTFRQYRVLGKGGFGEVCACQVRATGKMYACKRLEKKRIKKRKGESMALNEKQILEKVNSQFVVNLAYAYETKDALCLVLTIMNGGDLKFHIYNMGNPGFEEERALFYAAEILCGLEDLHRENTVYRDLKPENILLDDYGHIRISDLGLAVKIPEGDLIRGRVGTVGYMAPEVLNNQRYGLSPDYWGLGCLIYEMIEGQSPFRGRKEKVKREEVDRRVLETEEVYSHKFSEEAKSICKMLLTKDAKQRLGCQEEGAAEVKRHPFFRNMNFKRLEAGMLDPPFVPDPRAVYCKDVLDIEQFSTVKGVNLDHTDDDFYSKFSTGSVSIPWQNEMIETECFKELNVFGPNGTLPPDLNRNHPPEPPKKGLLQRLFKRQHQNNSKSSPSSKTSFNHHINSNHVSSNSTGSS

[17] = biological target: Insulin-like growth factor 1 receptor (Homo sapiens, UniProt P08069); test: Navigating the Kinome. Panel member name: IGF1R
[18] = biological target: Platelet-derived growth factor receptor alpha (Homo sapiens, UniProt P16234); test: Navigating the Kinome. Panel member name: PDGFRA
Platelet-derived growth factor receptor alpha, sequence (P16234 whole entry): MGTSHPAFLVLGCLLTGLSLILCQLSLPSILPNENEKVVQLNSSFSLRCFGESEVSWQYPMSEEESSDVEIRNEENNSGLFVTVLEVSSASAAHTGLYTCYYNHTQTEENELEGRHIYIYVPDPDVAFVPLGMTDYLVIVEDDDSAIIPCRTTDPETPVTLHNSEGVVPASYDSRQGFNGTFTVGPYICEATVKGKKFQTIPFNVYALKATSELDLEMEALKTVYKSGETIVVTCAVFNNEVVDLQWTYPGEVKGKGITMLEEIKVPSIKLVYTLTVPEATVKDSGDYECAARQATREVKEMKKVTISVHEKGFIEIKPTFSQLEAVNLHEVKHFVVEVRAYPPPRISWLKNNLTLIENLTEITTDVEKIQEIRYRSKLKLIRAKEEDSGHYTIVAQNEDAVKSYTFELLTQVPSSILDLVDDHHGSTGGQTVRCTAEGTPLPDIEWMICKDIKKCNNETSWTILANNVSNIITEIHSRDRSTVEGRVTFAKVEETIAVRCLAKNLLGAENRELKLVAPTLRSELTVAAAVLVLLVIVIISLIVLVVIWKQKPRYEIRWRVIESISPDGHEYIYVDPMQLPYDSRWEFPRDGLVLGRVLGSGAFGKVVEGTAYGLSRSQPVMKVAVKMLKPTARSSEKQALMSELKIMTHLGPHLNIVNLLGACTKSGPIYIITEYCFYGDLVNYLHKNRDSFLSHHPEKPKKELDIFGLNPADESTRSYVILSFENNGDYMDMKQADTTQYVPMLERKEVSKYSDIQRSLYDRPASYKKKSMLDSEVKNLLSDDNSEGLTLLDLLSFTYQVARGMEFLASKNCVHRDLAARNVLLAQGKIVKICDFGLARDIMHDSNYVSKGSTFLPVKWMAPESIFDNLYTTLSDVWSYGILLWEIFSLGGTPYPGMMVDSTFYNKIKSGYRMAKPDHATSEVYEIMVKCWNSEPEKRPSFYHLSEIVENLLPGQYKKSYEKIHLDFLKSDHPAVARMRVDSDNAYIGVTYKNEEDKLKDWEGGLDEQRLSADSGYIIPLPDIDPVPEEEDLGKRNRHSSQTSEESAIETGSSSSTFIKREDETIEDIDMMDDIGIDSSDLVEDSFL

[19] = biological target: Rho-associated protein kinase 1 (Homo sapiens, UniProt Q13464);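 further: measured within a broad kinome-wide panel profiling many kinases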
[20] = biological target: Cyclin-dependent kinase 8 (Homo sapiens, UniProt P49336); test: Navigating the Kinome. Panel member name: CDK8
[21] = biological target: Cyclin-dependent kinase 7 (Homo sapiens, UniProt P50613);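 further: value comes from a kinome-wide kinase profiling panel in which CDK7 is one member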
[22] = biological target: Glycogen synthase kinase-3 beta (Homo sapiens, UniProt P49841);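 further: value comes from a broad kinome profiling panel, with GSK3B as the panel member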
[23] = biological target: Cyclin-dependent kinase 9 (Homo sapiens, UniProt P50750);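 further: value from the CDK9 entry of a kinome-spanning kinase panel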
[24] = biological target: cAMP-dependent protein kinase catalytic subunit alpha (Homo sapiens, UniProt P17612)
[25] = biological target: Macrophage colony-stimulating factor 1 receptor (Homo sapiens, UniProt P07333);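 further: value comes from the Navigating the Kinome screening panel, CSF1R member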
[26] = biological target: Dual specificity mitogen-activated protein kinase kinase 2 (Homo sapiens, UniProt P36507); test: Navigating the Kinome. Panel member name: MAP2K2
[27] = biological target: Inhibitor of nuclear factor kappa-B kinase subunit epsilon (Homo sapiens, UniProt Q14164); test: Navigating the Kinome. Panel member name: IKBKE
Inhibitor of nuclear factor kappa-B kinase subunit epsilon, sequence (Q14164 whole entry): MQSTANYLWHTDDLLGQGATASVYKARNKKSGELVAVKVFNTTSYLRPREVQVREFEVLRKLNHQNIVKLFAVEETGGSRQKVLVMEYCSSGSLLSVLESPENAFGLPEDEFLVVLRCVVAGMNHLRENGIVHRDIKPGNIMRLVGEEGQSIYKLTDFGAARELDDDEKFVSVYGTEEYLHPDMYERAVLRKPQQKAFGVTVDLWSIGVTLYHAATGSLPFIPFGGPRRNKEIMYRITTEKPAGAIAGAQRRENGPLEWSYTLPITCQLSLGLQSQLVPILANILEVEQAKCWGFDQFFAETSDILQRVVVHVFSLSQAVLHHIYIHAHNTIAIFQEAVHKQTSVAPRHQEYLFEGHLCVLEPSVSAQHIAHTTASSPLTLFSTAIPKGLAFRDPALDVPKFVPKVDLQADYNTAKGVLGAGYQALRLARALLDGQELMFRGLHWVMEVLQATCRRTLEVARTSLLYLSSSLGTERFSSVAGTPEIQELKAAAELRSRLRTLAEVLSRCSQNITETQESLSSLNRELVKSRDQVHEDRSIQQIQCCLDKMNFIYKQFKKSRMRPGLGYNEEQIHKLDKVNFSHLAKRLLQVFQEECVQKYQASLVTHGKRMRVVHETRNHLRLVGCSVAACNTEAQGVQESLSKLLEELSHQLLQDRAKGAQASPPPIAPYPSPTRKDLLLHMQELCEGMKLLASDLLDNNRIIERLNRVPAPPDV

[28] = biological target: Calcium/calmodulin-dependent protein kinase type II subunit alpha (Homo sapiens, UniProt Q9UQM7); test: Navigating the Kinome. Panel member name: CAMK2A
Calcium/calmodulin-dependent protein kinase type II subunit alpha, sequence (Q9UQM7 whole entry): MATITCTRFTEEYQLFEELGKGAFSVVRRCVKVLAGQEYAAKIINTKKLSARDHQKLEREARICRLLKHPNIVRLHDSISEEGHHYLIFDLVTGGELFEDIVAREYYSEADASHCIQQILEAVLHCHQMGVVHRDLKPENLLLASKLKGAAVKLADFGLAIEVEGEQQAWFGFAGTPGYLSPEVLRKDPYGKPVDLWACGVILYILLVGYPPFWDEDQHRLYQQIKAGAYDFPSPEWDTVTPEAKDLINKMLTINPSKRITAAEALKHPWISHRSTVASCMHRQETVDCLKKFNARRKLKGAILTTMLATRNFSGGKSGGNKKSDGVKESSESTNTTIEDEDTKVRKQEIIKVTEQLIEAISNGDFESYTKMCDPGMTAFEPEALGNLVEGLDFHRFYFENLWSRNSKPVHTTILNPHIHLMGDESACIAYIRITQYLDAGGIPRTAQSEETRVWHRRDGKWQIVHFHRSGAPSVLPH

Cc1ccnc2ccc(-c3nc4ccccc4o3)cc12
IC50 (Caspase-3): 5310 nM (active)
IC50 [1]: 2200 nM (active)

O=C(NCCc1cccs1)N1CC=C(c2c[nH]c3ncccc23)CC1
Ki [2]: > 2510 nM (inactive)
Ki [3]: > 3160 nM (inactive)
Ki [4]: 2000 nM (active)
Ki [5]: > 3160 nM (inactive)
Ki [6]: > 3980 nM (inactive)
Ki [7]: 3980 nM (active)
Ki [8]: > 3980 nM (inactive)
Ki [9]: > 3980 nM (inactive)
Ki [10]: > 3160 nM (inactive)
Ki [11]: > 3980 nM (inactive)
Ki [12]: > 2510 nM (inactive)
Ki [13]: 2000 nM (active)
Ki [14]: > 2510 nM (inactive)
Ki [15]: 2000 nM (active)
Ki [16]: > 3980 nM (inactive)
Ki [17]: > 2510 nM (inactive)
Ki [18]: > 2510 nM (inactive)
Ki [19]: 63.1 nM (active)
Ki [20]: 79.4 nM (active)
Ki [21]: 1000 nM (active)
Ki [22]: 3160 nM (active)
Ki [23]: 398 nM (active)
Ki [24]: 63.1 nM (active)
Ki [25]: > 2510 nM (inactive)
Ki [26]: 3160 nM (active)
Ki [27]: > 3160 nM (inactive)
Ki [28]: 3980 nM (active)
